Data reported in patent US11173151B2, “Substituted triazole derivatives and uses thereof” (BAYER AKTIENGESELLSCHAFT, priority 2017, dated 2021).

Experiments:
human V2 receptor = biological target: T1, human V2 receptor (Homo sapiens, UniProt P30518); assay: Cellular in vitro assay for determining vasopressin receptor activity, V2 receptor cell line (CHO, CRE-luciferase); assay type: cell-based; conditions: CHO cell line transfected with human V2 receptor; [Arg8]-vasopressin at EC50 concentration, 3 hours; read-out: IC50 hV2
T1 construct: expressed in transfected cells; host or cells: CHO K1 (ATCC) expressing firefly luciferase under a CRE-responsive promoter
T1 sequence (P30518 whole entry): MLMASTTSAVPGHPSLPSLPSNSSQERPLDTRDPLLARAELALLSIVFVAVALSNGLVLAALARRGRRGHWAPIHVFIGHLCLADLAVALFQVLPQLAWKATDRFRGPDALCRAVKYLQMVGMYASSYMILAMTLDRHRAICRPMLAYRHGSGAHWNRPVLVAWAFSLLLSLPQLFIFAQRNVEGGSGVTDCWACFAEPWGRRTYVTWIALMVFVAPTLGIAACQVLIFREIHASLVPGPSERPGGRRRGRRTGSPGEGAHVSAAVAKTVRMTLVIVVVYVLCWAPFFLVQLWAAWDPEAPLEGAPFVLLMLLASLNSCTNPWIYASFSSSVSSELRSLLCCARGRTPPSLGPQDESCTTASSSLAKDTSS

human V1a receptor = biological target: T2, human V1a receptor (Homo sapiens, UniProt P37288); assay: Cellular in vitro assay for determining vasopressin receptor activity, V1a receptor cell line (CHO, aequorin luminescence); assay type: cell-based; conditions: for IC50: CHO cell line transfected with human V1a receptor, [Arg]-vasopressin at EC50 concentration, read-out: IC50 hV1a; for ratio IC50 hV2/hV1a: selectivity ratio IC50 hV2 / IC50 hV1a
T2 construct: expressed in transfected cells; host or cells: CHO K1 (ATCC), also stably transfected with a modified aequorin
T2 sequence (P37288 whole entry): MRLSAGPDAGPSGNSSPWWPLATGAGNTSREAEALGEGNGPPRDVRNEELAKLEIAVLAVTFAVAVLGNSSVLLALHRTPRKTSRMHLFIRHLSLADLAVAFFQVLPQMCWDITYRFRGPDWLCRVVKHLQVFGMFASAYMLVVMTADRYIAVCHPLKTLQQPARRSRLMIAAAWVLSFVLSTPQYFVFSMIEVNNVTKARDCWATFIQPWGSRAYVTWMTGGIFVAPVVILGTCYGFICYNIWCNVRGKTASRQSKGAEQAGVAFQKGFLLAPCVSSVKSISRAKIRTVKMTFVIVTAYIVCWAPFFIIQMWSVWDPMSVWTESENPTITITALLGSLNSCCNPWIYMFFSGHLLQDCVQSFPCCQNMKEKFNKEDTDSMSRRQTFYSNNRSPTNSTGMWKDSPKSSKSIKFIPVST
Outline: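 Cells were plated the day before in medium containing 5 μg/ml coelenterazine and kept at 37° C. Compounds at various concentrations were then added for 10 minutes. Next, [Arg]-vasopressin at EC50 was applied and light output recorded at once, yielding IC50.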

| SMILES | IC50 (human V2 receptor) [µM] | IC50 (human V1a receptor) [µM] | ratio IC50 hV2/hV1a (human V1a receptor) |
| --- | --- | --- | --- |
| O=C1NCCN1CCNc1ccncc1-n1cnc(Cn2nc(-c3ccc(Cl)cc3)n(C[C@H](O)C(F)(F)F)c2=O)n1 [Example 8, 5-(4-Chlorophenyl)-2-{[1-(4-{[2-(2-oxoimidazolidin-1-yl)ethyl]amino}pyridin-3-yl)-1H-1,2,4-triazol-3-yl]methyl}-4-[(2S)-3,3,3-trifluoro-2-hydroxypropyl]-2,4-dihydro-3H-1,2,4-triazol-3-one] | 3 | 0.585 | 5.1 |
| O=c1n(Cc2ncn(-c3cnccc3N3CCC(F)(F)CC3)n2)nc(-c2ccc(Cl)cc2)n1C[C@H](O)C(F)(F)F [Example 9, 5-(4-Chlorophenyl)-2-({1-[4-(4,4-difluoropiperidin-1-yl)pyridin-3-yl]-1H-1,2,4-triazol-3-yl}methyl)-4-[(2S)-3,3,3-trifluoro-2-hydroxypropyl]-2,4-dihydro-3H-1,2,4-triazol-3-one] | 0.285 | 0.0065 | 43.8 |
| O=c1n(Cc2ncn(-c3cnccc3NCC(F)(F)F)n2)nc(-c2ccc(Cl)cc2)n1C[C@H](O)C(F)(F)F [Example 10, 5-(4-Chlorophenyl)-2-[(1-{4-[(2,2,2-trifluoroethyl)amino]pyridin-3-yl}-1H-1,2,4-triazol-3-yl)methyl]-4-[(2S)-3,3,3-trifluoro-2-hydroxypropyl]-2,4-dihydro-3H-1,2,4-triazol-3-one] | 0.445 | 0.235 | 1.9 |
| O=c1n(Cc2ncn(-c3cnccc3NCCC(F)(F)F)n2)nc(-c2ccc(Cl)cc2)n1C[C@H](O)C(F)(F)F [Example 11, 5-(4-Chlorophenyl)-4-[(2S)-3,3,3-trifluoro-2-hydroxypropyl]-2-[(1-{4-[(3,3,3-trifluoropropyl)amino]pyridin-3-yl}-1H-1,2,4-triazol-3-yl)methyl]-2,4-dihydro-3H-1,2,4-triazol-3-one] | 0.41 | 0.958 | 0.4 |
| CC(F)(F)CNc1ccncc1-n1cnc(Cn2nc(-c3ccc(Cl)cc3)n(C[C@H](O)C(F)(F)F)c2=O)n1 [Example 12, 5-(4-Chlorophenyl)-2-[(1-{4-[(2,2-difluoropropyl)amino]pyridin-3-yl}-1H-1,2,4-triazol-3-yl)methyl]-4-[(2S)-3,3,3-trifluoro-2-hydroxypropyl]-2,4-dihydro-3H-1,2,4-triazol-3-one] | 0.37 | 0.727 | 0.5 |
| CC1(C)CN(c2ccncc2-n2cnc(Cn3nc(-c4ccc(Cl)cc4)n(C[C@H](O)C(F)(F)F)c3=O)n2)CCN1 [Example 14, 5-(4-Chlorophenyl)-2-({1-[4-(3,3-dimethylpiperazin-1-yl)pyridin-3-yl]-1H-1,2,4-triazol-3-yl}methyl)-4-[(2S)-3,3,3-trifluoro-2-hydroxypropyl]-2,4-dihydro-3H-1,2,4-triazol-3-one] | 5.33 | 0.278 | 19.2 |
| O=c1n(Cc2ncn(-c3cnccc3N3CCOCC3)n2)nc(-c2ccc(Cl)cc2)n1C[C@H](O)C(F)(F)F [Example 15, 5-(4-Chlorophenyl)-2-({1-[4-(morpholin-4-yl)pyridin-3-yl]-1H-1,2,4-triazol-3-yl}methyl)-4-[(2S)-3,3,3-trifluoro-2-hydroxypropyl]-2,4-dihydro-3H-1,2,4-triazol-3-one] | 0.785 | 0.0193 | 40.8 |
| CC(C)(C)OC(=O)CNc1ccncc1-n1cnc(Cn2nc(-c3ccc(Cl)cc3)n(C[C@H](O)C(F)(F)F)c2=O)n1 [Example 16, Tert-butyl N-{3-[3-({3-(4-chlorophenyl)-5-oxo-4-[(2S)-3,3,3-trifluoro-2-hydroxypropyl]-4,5-dihydro-1H-1,2,4-triazol-1-yl}methyl)-1H-1,2,4-triazol-1-yl]pyridin-4-yl}glycinate] | 1.55 | 0.0795 | 19.5 |
| NC(=O)CNc1ccncc1-n1cnc(Cn2nc(-c3ccc(Cl)cc3)n(C[C@H](O)C(F)(F)F)c2=O)n1 [Example 17, N^2-{3-[3-({3-(4-Chlorophenyl)-5-oxo-4-[(2S)-3,3,3-trifluoro-2-hydroxypropyl]-4,5-dihydro-1H-1,2,4-triazol-1-yl}methyl)-1H-1,2,4-triazol-1-yl]pyridin-4-yl}glycinamide] | 2.85 | 2.25 | 1.3 |
| O=c1n(Cc2ncn(-c3cnccc3NCC3CS(=O)(=O)C3)n2)nc(-c2ccc(Cl)cc2)n1C[C@H](O)C(F)(F)F [Example 18, 5-(4-Chlorophenyl)-2-{[1-(4-{[(1,1-dioxidothietan-3-yl)methyl]amino}pyridin-3-yl)-1H-1,2,4-triazol-3-yl]methyl}-4-[(2S)-3,3,3-trifluoro-2-hydroxypropyl]-2,4-dihydro-3H-1,2,4-triazol-3-one] | 1.95 | 0.0237 | 82.3 |
| CC(C)(C)OC(=O)CCNc1ccncc1-n1cnc(Cn2nc(-c3ccc(Cl)cc3)n(C[C@H](O)C(F)(F)F)c2=O)n1 [Example 19, Tert-butyl N-{3-[3-({3-(4-chlorophenyl)-5-oxo-4-[(2S)-3,3,3-trifluoro-2-hydroxypropyl]-4,5-dihydro-1H-1,2,4-triazol-1-yl}methyl)-1H-1,2,4-triazol-1-yl]pyridin-4-yl}-beta-alaninate] | 2.25 | 0.43 | 5.2 |
| O=C(O)CCNc1ccncc1-n1cnc(Cn2nc(-c3ccc(Cl)cc3)n(C[C@H](O)C(F)(F)F)c2=O)n1 [Example 20, N-{3-[3-({3-(4-Chlorophenyl)-5-oxo-4-[(2S)-3,3,3-trifluoro-2-hydroxypropyl]-4,5-dihydro-1H-1,2,4-triazol-1-yl}methyl)-1H-1,2,4-triazol-1-yl]pyridin-4-yl}-beta-alanine] | 5.92 | 4.35 | 1.4 |
| NC(=O)CCNc1ccncc1-n1cnc(Cn2nc(-c3ccc(Cl)cc3)n(C[C@H](O)C(F)(F)F)c2=O)n1 [Example 21, N^3-{3-[3-({3-(4-Chlorophenyl)-5-oxo-4-[(2S)-3,3,3-trifluoro-2-hydroxypropyl]-4,5-dihydro-1H-1,2,4-triazol-1-yl}methyl)-1H-1,2,4-triazol-1-yl]pyridin-4-yl}-beta-alaninamide] | 1.48 | 0.84 | 1.8 |
| NC(=O)[C@H]1CCCN1c1ccncc1-n1cnc(Cn2nc(-c3ccc(Cl)cc3)n(C[C@H](O)C(F)(F)F)c2=O)n1 [Example 22, 1-{3-[3-({3-(4-Chlorophenyl)-5-oxo-4-[(2S)-3,3,3-trifluoro-2-hydroxypropyl]-4,5-dihydro-1H-1,2,4-triazol-1-yl}methyl)-1H-1,2,4-triazol-1-yl]pyridin-4-yl}-D-prolinamide] | 0.69 | 0.25 | 2.8 |
| NC(=O)[C@@H]1CCCN1c1ccncc1-n1cnc(Cn2nc(-c3ccc(Cl)cc3)n(C[C@H](O)C(F)(F)F)c2=O)n1 [Example 23, 1-{3-[3-({3-(4-Chlorophenyl)-5-oxo-4-[(2S)-3,3,3-trifluoro-2-hydroxypropyl]-4,5-dihydro-1H-1,2,4-triazol-1-yl}methyl)-1H-1,2,4-triazol-1-yl]pyridin-4-yl}-L-prolinamide] | 4.25 | 0.71 | 6.0 |
| NC(=O)[C@H]1CC(F)(F)CN1c1ccncc1-n1cnc(Cn2nc(-c3ccc(Cl)cc3)n(C[C@H](O)C(F)(F)F)c2=O)n1 [Example 24, 1-{3-[3-({3-(4-Chlorophenyl)-5-oxo-4-[(2S)-3,3,3-trifluoro-2-hydroxypropyl]-4,5-dihydro-1H-1,2,4-triazol-1-yl}methyl)-1H-1,2,4-triazol-1-yl]pyridin-4-yl}-4,4-difluoro-D-prolinamide] | 4.67 | 0.33 | 14.2 |
| NC(=O)[C@@H]1CC(F)(F)CN1c1ccncc1-n1cnc(Cn2nc(-c3ccc(Cl)cc3)n(C[C@H](O)C(F)(F)F)c2=O)n1 [Example 25, 1-{3-[3-({3-(4-Chlorophenyl)-5-oxo-4-[(2S)-3,3,3-trifluoro-2-hydroxypropyl]-4,5-dihydro-1H-1,2,4-triazol-1-yl}methyl)-1H-1,2,4-triazol-1-yl]pyridin-4-yl}-4,4-difluoro-L-prolinamide] | 4.9 | 1.97 | 2.5 |
| O=C(Nc1ccncc1-n1cnc(Cn2nc(-c3ccc(Cl)cc3)n(C[C@H](O)C(F)(F)F)c2=O)n1)OCC(F)(F)F [Example 26, 2,2,2-Trifluoroethyl {3-[3-({3-(4-chlorophenyl)-5-oxo-4-[(2S)-3,3,3-trifluoro-2-hydroxypropyl]-4,5-dihydro-1H-1,2,4-triazol-1-yl}methyl)-1H-1,2,4-triazol-1-yl]pyridin-4-yl}carbamate] | 0.323 | 0.058 | 5.6 |
| O=C(CC(F)(F)F)Nc1ccncc1-n1cnc(Cn2nc(-c3ccc(Cl)cc3)n(C[C@H](O)C(F)(F)F)c2=O)n1 [Example 27, N-{3-[3-({3-(4-Chlorophenyl)-5-oxo-4-[(2S)-3,3,3-trifluoro-2-hydroxypropyl]-4,5-dihydro-1H-1,2,4-triazol-1-yl}methyl)-1H-1,2,4-triazol-1-yl]pyridin-4-yl}-3,3,3-trifluoropropanamide] | 0.283 | 0.00405 | 69.8 |
| CC(=O)Nc1ccncc1-n1cnc(Cn2nc(-c3ccc(Cl)cc3)n(C[C@H](O)C(F)(F)F)c2=O)n1 [Example 28, N-{3-[3-({3-(4-Chlorophenyl)-5-oxo-4-[(2S)-3,3,3-trifluoro-2-hydroxypropyl]-4,5-dihydro-1H-1,2,4-triazol-1-yl}methyl)-1H-1,2,4-triazol-1-yl]pyridin-4-yl}acetamide] | 0.395 | 0.011 | 35.9 |
